We go through five compounds from patent publication EP0306845A2, “Medicinal preparation containing certain derivatives of 6-mercaptopurine, use of these derivatives of 6-mercaptopurine, process for the preparation of the medicinal preparation and some derivatives of 6-mercaptopurine and process for their preparation” (HOECHST AKTIENGESELLSCHAFT, priority 1987, dated 1989).

This test relates to Friend-Leukämie-Virus. The experiment in a line: In vivo test in mice infected with Friend leukaemia virus (retrovirus model; spleen weight). Also on record: species or system Maus. The settings on record: for Wirkung im Vergleich zu Suramin: summary in words of the two experiments of the table. From the text: Da für die HIV-Infektion des Menschen kein geeignetes Infektionsmodell bei Labortieren existiert, muß bei der Prüfung von Chemotherapeutika auf Infektionen mit anderen Retroviren zurückgegriffen werden. Sowie die Hemmung der Virusreplikation in vivo aufgrund einer spezifischen Blockierung der RT (= Reverse Transkriptase)-Aktivität untersucht wird, erscheint die Wahl eines solchen Ersatzmodelles gerechtfertigt. Im vorliegenden Fall wurde die Infektion der Maus mit dem Friend-Leukämie-Virus gewählt.
Dazu wurden normale Labormäuse (NMRI = Naval Medical Research Institute) durch intravenöse Injektion mit Friend-Virus enthaltendem Mäuseserum infiziert. Bei den unbehandelten Kontrolltieren entwickelte sich als Symptom der Infektion innerhalb von zwei Wochen eine deutliche Vergrößerung von Milz und Leber. Die Behandlung erfolgte über 10 Tage, beginnend 48 Stunden nach der Infektion. Am 14. Versuchstag wurden die tiere durch Luxation der Halswirbel getötet und geöffnet. Die Milz wurde entnommen und gewogen. Als Meßparameter der therapeutischen Wirksamkeit wurde das Milzgewicht der behandelten Tiere mit dem der unbehandelten Infektionskontrolle in Relation gesetzt.
Während bei uninfizierten ausgewachsenen Labormäusen (20 - 24 g Körpergewicht) die Milz weniger als 1 % des Körpergewichtes wog, erreichte bei infizierten Tieren die Milz am Ende des Versuchs bis zu etwa 10 % des Körpergewichtes. […] Suramin ist die Verbindung der Formel: [drawing 14]

Regarding `Nc1nc(S)c2ncn([C@@H]3O[C@H](CO)[C@@H](O)[C@H]3O)c2n1` [(2), 2-Amino-6-mercaptopurin-9-D-ribosid], the “Relat Milzgewicht in % vom Körpergewicht” value (Versuch 1 (Virus-Verdünnung 1:5000), NMRI mice, 10 x 1,0 mg/Maus i.p., spleen weighed on day 14) is given as 0,5 % vom Körpergewicht. As for “6-Mercapto-9-[(1-hydroxy-3-isopropoxy-2-propoxy)methyl]-purin [Beispiel 3]”, the “Wirkung im Vergleich zu Suramin” value is reported as “mit Suramin vergleichbar”. With “6-Mercapto-9-[1,3-bis-(isopropoxy)-propyl-2-oxymethyl]-purin [Beispiel 2]”, the “Wirkung im Vergleich zu Suramin” value was “gegenüber dem Suramin Vorteile besitzen”.

Consider `OC[C@H]1O[C@@H](n2cnc3c(S)ncnc32)[C@H](O)[C@@H]1O` [(1), 6-Mercapto-purin-9-D-ribosid], for which the “Wirkung im Vergleich zu Suramin” value is listed as “gegenüber dem Suramin Vorteile besitzen”.

Turning to `Cc1ccc(C(=O)Nc2ccc(S(=O)(=O)O)c3cc(S(=O)(=O)O)cc(S(=O)(=O)O)c23)cc1NC(=O)c1cccc(NC(=O)Nc2cccc(C(=O)Nc3cc(C(=O)Nc4ccc(S(=O)(=O)O)c5cc(S(=O)(=O)O)cc(S(=O)(=O)O)c45)ccc3C)c2)c1` [Suramin, reference compound], under “infected mice, treatment with the comparison preparation, mostly statistically significant (P 0,05)”, the Milzwachstum entry is given as “Verringerung des Milzwachstums”.
